Test results reported in US9321728B2, “Beta-alanine derivatives, pharmaceutically acceptable salts thereof, and pharmaceutical composition comprising same as active ingredient” (KOREA RESEARCH INSTITUTE OF CHEMICAL TECHNOLOGY, priority 2012, dated 2016).
pIC50: −log10 of the molar value.

Target: human DGAT1 (Homo sapiens (Human), UniProt O75907)
Experiment: Human DGAT1 enzyme inhibition test (phospholipid FlashPlate, [14C]decanoyl-CoA)
Format: biochemical
Conditions: for pIC50: lysate of Hep3B cells over-expressing human DGAT1 (5 μg/well), didecanoyl glycerol and [14C]decanoyl-CoA substrates; for in vitro inhibition activity with respect to DGAT1: verbal summary of Table 1
Protocol: The cells were treated with 200 μg/ml G-418(Sigma) once every three days for 4 weeks to over-express the human DGAT1, thereby obtaining a stabilized cell line. The over-expressed cells were put into a homogenization buffer [250 mM sucrose, 10 mM Tris-HCl (pH 7.4), 1 mM EDTA] and lysed by a homogenization apparatus. Then, centrifugation was performed with 600×g for 15 minutes to remove cell residue, and the obtained cells were used for an enzyme inhibition test. Human DGAT-1 and mouse DGAT activity was determined as follows: Assay buffer [20 mM HEPES (pH 7.4), 100 mM MgCl2, 0.04% BSA] containing 500 μM of enzyme substrate (didecanoyl glycerol) and 7.5 μM radiolabeled acyl-CoA substrate ([^14C]decanoyl-CoA) was added to each well of a phospholipid FlashPlate (PerkinElmer Life Sciences). A small aliquot of lysate (5 μg/well) or mouse liver microsome (0.1 mg/well) was added to start the reaction, which was allowed to proceed in a 20° C. bath for 1 hour. and maintained overnight at room temperature. Next day, measurement was performed by Wallac 1450 Microbeta Trilux Liquid Scintillation Counter and Luminometer (PerkinElmer Life Science). […] A calculation method of inhibition degree (%) is as follows.

human DGAT1, sequence (O75907 whole entry): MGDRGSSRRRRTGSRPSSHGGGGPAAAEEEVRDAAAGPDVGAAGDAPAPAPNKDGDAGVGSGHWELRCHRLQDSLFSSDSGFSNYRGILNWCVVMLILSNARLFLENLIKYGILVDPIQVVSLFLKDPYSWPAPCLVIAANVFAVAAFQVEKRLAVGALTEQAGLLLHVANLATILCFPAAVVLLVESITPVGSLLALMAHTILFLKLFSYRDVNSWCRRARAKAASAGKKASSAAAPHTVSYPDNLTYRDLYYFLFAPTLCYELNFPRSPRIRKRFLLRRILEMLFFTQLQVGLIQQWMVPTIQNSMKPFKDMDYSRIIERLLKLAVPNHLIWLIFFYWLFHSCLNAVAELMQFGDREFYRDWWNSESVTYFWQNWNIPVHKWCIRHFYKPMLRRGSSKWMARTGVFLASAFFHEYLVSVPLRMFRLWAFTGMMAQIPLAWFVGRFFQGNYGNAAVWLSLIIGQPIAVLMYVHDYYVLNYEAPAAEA

SMILES	pIC50	in vitro inhibition activity with respect to DGAT1
O=C(O)C[C@H]1CC[C@H](c2ccc(NC(=O)CCNC(=O)c3nc(-c4ccccc4Cl)oc3C(F)(F)F)cc2)CC1 [Compound 79, sodium; trans-{4-[4-(3-{[2-(2-chlorophenyl)-5-trifluoromethyloxazole-4-carbonyl]amino}propionylamino)phenyl]cyclohexyl}acetate]	> 7.30	
O=C(O)C[C@H]1CC[C@H](c2ccc(NC(=O)CCNC(=O)c3ccc(-c4ccccc4Cl)cc3)cc2)CC1 [Compound 86, trans-[4-(4-{3-[(2′-chlorobiphenyl-4-carbonyl)amino]propionylamino}phenyl)cyclohexyl]acetic acid]	> 7.00	
O=C(O)C[C@H]1CC[C@H](c2ccc(NC(=O)CCNC(=O)c3nc(-c4ccccc4)oc3Cl)cc2)CC1 [Compound 87, trans-[4-(4-{3-[(5-chloro-2-phenyloxazole-4-carbonyl)amino]propionylamino}phenyl)cyclohexyl]acetic acid]	> 7.00	
CCc1ccc(-c2ccc(C(=O)NCCC(=O)Nc3ccc([C@H]4CC[C@H](CC(=O)O)CC4)cc3)cc2)cc1 [Compound 93, trans-[4-(4-{3-[(4′-ethylbiphenyl-4-carbonyl)amino]propionylamino}phenyl)cyclohexyl]acetic acid]	> 7.30	good to excellent

The next lines start with the values.

pIC50	in vitro inhibition activity with respect to DGAT1	SMILES
> 7.30	good to excellent	O=C(O)C[C@H]1CC[C@H](c2ccc(NC(=O)CCNC(=O)c3ccc(-c4ccccc4)c(Cl)c3)cc2)CC1 [Compound 94, trans-[4-(4-{3-[(2-chlorobiphenyl-4-carbonyl)amino]propionylamino}phenyl)cyclohexyl]acetic acid]
> 7.30	good to excellent	O=C(O)C[C@H]1CC[C@H](c2ccc(NC(=O)CCNC(=O)c3nc(-c4ccccc4Cl)oc3Cl)cc2)CC1 [Compound 95, trans-{4-[4-(3-{[5-chloro-2-(2-chlorophenyl)oxazole-4-carbonyl]amino}propionylamino)phenyl]cyclohexyl}acetic acid]
> 7.30	good to excellent	O=C(O)C[C@H]1CC[C@H](c2ccc(NC(=O)CCNC(=O)c3nc(-c4c(Cl)cc(F)cc4Cl)oc3C(F)(F)F)cc2)CC1 [Compound 105]
